We go through 25 compounds from US20060153888A1, “Methods for scavenging oxidizing nitrogen and oxygen species with fragrances having antioxidative properties” (Access Business Group International LLC, priority 2004, published 2006).

Assay [1] is described as follows: DPPH Spectrophotometer Assay (free radical scavenging). The assay is classed as biochemical. The settings on record: for DPPH EC50: Table 5; for antioxidant properties in words: comment on DPPH and NORA results of Table 5; for antioxidant capacity in words: in both DPPH and nitric oxide free radical systems, Table 3. The text has this:
The free radical 2,2-Diphenyl-1-picrylhydrazyl (DPPH) may be used to determine free radical scavenging ability of test materials such as a scavenging agent of the present invention. […] Measurements are taken after the reaction between the test scavenging agent and DPPH reaches steady state. DPPH is a free radical that changes color when it reacts with an antioxidant. The color change in DPPH is an indication of antioxidant power. […] Thus, DPPH serves as a model for free radical oxidation. Provided below are details for conducting a DPPH Spectrophotometer Assay:
Weigh 100 mg sample into 15 ml conical centrifuge tube.
Add 1 ml DMSO. Vortex to mix.
Dilute samples in MeOH according to Table 2.
Dilute 1 mM DPPH (prepared in 80% MeOH) to 100 uM in 80% MeOH.
In 3 ml cuvette, add 200 uL sample dilution. Add 1.8 ml of 100 uM DPPH.
Mix well. Incubate 15 min at Room Temp. Read at […].
If cuvette appears cloudy due to precipitation of sample, prepare sample dilutions (Table 2) in DMF (or suitable solvent) instead of DMSO. Also prepare DPPH working solution (100 uM) in DMF (or suitable solvent) instead of MeOH.
In general terms: The DPPH test is a chemical assay of radical scavenging.

Assay [2] is described as follows: Nitric Oxide Radical Absorbance (NORA) assay. The assay is classed as biochemical. The settings on record: for inhibitory response for nitric oxide in words: comment on Table 3. The procedure: The NORA assay determines the ability of a compound to quench nitric oxide free radicals (NO*) produced by a NO* generator. In the assay, a target compound is oxidized using the nitric oxide generator NOR-3, resulting in increased fluorescence. […] Provided below are details for conducting a Nitric Oxide Radical Absorbance (NORA) Assay:
DHR123: 1.0 mg/3 ml MeOH=1 mM stock (Freeze and protect from light) 7.5 uL stock/10 ml Buffer=0.75 uM working solution.
NOR-3: 1.0 mg NOR-3/100 uL DMSO.
Oil: Weigh 100 mg into 15 ml polypropylene centrifuge tube. Add 5 ml
Prepare sample dilution in a 96-well polypropylene storage plate (2 mL/well), the dilution plate: • A. 60 uL Stock+1.94 ml DMF=200 ug/ml • B. 500 uL 200 ug/ml+500 ul DMF=100 ug/ml • C.
Positive Control: (1 uM Uric Acid)
Add 100 uL of each sample/PC/Blank in duplicate. Row H will contain PC only.
Add 70 uL Phosphate Buffer to all wells.
Add 30 uL NOR-3 to all wells.
Incubate plate 15 min at room temperature.

[3] abbreviates: amount of test material required to inhibit nitric oxide oxidation by 50%, Table 3.
[4] abbreviates: Antioxidant Power equals 1/EC50, fragrant oils, Table 1.

Some results are limits rather than exact numbers.

As to `OCCOc1ccccc1` [2-Phenoxyethanol], the “DPPH EC50” value in assay [1] is more than 2.82 g/g DPPH. For the same compound, the “NORA EC50” value in assay [2] (Table 5) is more than 10.0 µg/mL.
In the same order, the values of `OCCCc1ccccc1` [3-Phenyl-1-propanol] are more than 2.82 g/g DPPH and more than 10.0 µg/mL.
In the same order, the values of `Cc1cc(C(C)(C)C)c(O)c(C(C)(C)C)c1` [BHT, butylated hydroxytoluene] are 0.15 g/g DPPH and more than 10.0 µg/mL.
On the same counts, the results for `CC12CCC(CC1=O)C2(C)C` (stereo not drawn) [Camphor] are more than 2.82 g/g DPPH and more than 10.0 µg/mL.
As for `OCC=Cc1ccccc1` [Cinnamyl alcohol], the “DPPH EC50” value in assay [1] is recorded as more than 2.82 g/g DPPH. The “NORA EC50” value in assay [2] (Table 5) amounted to 11.8 µg/mL.
For `O=c1ccc2ccccc2o1` [Coumarin], the “DPPH EC50” value in assay [1] is listed as more than 2.82 g/g DPPH. Besides, the “NORA EC50” value in assay [2] (Table 5) is more than 10.0 µg/mL.
On the same counts, the results for `CCCCCCCCC(=O)OCC` [Ethyl monanoate] are more than 2.82 g/g DPPH and more than 10.0 µg/mL.
With `CCOC(=O)c1ccc(O)cc1` [Ethyl paraben], the “DPPH EC50” value in assay [1] is more than 2.82 g/g DPPH. The “NORA EC50” value in assay [2] (Table 5) is more than 10.0 µg/mL.
Take `C=CCc1ccc(O)c(OC)c1` [Eugenol]: in assay [1], the “DPPH EC50” value is reported as 0.12 g/g DPPH and the “antioxidant properties in words” value was “excellent antioxidant properties”. In addition, the “NORA EC50” value in assay [2] (Table 5) came to 0.8 µg/mL.
For `COc1cc(/C=C/C(=O)O)ccc1O` [Ferulic acid], in assay [1], the “DPPH EC50” value turned out to be 0.19 g/g DPPH and the “antioxidant properties in words” value is “excellent antioxidant properties”. In addition, the “NORA EC50” value in assay [2] (Table 5) was 0.3 µg/mL.
As to `CC(C)CC1CC(C)(O)CCO1` (stereo not drawn) [Florosa (Q), Florosa], in assay [2] (setting [3]), the “NORA EC50” value was 150.33 µg/mL.
With `CCCCCC1COCCC1OC(C)=O` (stereo not drawn) [Jasmopyrane (Q), Jasmopyrane], the “NORA EC50” value in assay [2] (setting [3]) is 150.44 µg/mL. In addition, the “inhibitory response for nitric oxide in words” value in assay [2] was “performed more poorly than did lilial”.
With `CC(C=O)Cc1ccc(C(C)(C)C)cc1` (stereo not drawn) [Lilial (G), Lilial], in assay [2] (setting [3]), the “NORA EC50” value turned out to be 23.70 µg/mL. For the same compound, the “inhibitory response for nitric oxide in words” value in assay [2] is listed as “better than expected inhibitory response”.
As for `C=C(C)[C@H]1CC=C(C)CC1` [Limonene], in assay [1], the “DPPH EC50” value was more than 2.82 g/g DPPH. Moreover, in assay [2] (Table 5), the “NORA EC50” value was more than 10.0 µg/mL.
On to `Cc1occc(=O)c1O` [Maltol], for which, in assay [1], the “DPPH EC50” value is given as 2.82 g/g DPPH and the “antioxidant properties in words” value is recorded as “performed marginally well”. Also, the “NORA EC50” value in assay [2] (Table 5) came to 10.0 µg/mL.
In the case of `CC1CCC(C(C)C)C(O)C1` (stereo not drawn) [Menthol], in assay [1], the “DPPH EC50” value is recorded as more than 2.82 g/g DPPH. Besides, the “NORA EC50” value in assay [2] (Table 5) was more than 10.0 µg/mL.
`Cc1ccc(C(C)C)cc1` [Paracymene]: in assay [2] (setting [3]), the “NORA EC50” value turned out to be 274.16 µg/mL.
Turning to `CC(=O)CCc1ccc(O)cc1` [Raspberry Ketone], the “antioxidant capacity in words” value in assay [1] is “greatest antioxidant capacity”. Besides, the “NORA EC50” value in assay [2] (setting [3]) was 10.14 µg/mL.
Take `Oc1cccc(O)c1` [Resorcinol]: in assay [1], the “DPPH EC50” value is 0.74 g/g DPPH and the “antioxidant properties in words” value is recorded as “good responses”. In addition, the “NORA EC50” value in assay [2] (Table 5) is more than 10.0 µg/mL.
Regarding `Cc1ccc(C(C)C)c(O)c1` [Thymol], in assay [1], the “DPPH EC50” value came out at 0.65 g/g DPPH and the “antioxidant properties in words” value is recorded as “good responses”. In addition, in assay [2] (Table 5), the “NORA EC50” value was more than 10.0 µg/mL.
As for `Cc1c(C)c2c(c(C)c1O)CCC(C)(C(=O)O)O2` (stereo not drawn) [Trolox, reference compound], in assay [2] (setting [3]), the “NORA EC50” value worked out at 0.046 µg/mL.
`O=c1[nH]c(=O)c2[nH]c(=O)[nH]c2[nH]1` [Uric Acid, reference compound]: in assay [2] (setting [3]), the “NORA EC50” value is 0.84 µg/mL.
With `COc1cc(C=O)ccc1O` [Vanillin], the “DPPH *AO Power” value in assay [1] (setting [4]) amounted to 0.0112 units/gram. Further, the “antioxidant capacity in words” value in assay [1] is “greatest antioxidant capacity”. Moreover, in assay [2] (setting [4]), the “NORA AO Power” value was found to be 93 units/gram. Also, the “NORA EC50” value in assay [2] (setting [3]) amounted to 8.95 µg/mL.
As to `COc1cc(CO)ccc1O` [Vanillyl alcohol], in assay [1], the “DPPH EC50” value amounted to 0.16 g/g DPPH and the “antioxidant properties in words” value is reported as “excellent antioxidant properties”. In assay [2] (Table 5), the “NORA EC50” value is 4.1 µg/mL.
For `COc1cccc(CO)c1` [m-Anisyl alcohol], in assay [1], the “DPPH EC50” value is given as more than 2.82 g/g DPPH. In addition, the “NORA EC50” value in assay [2] (Table 5) is more than 10.0 µg/mL.
